# Measurements taken from ChEMBL document CHEMBL1255241, “Novel characteristics of community-acquired methicillin-resistant Staphylococcus aureus strains belonging to multilocus sequence type 59 in Taiwan” (2008).
# What was measured:
# Format in all cases: functional
# Staphylococcus aureus [1] = test: Antibacterial activity against group 2 PVL+ community-acquired methicillin-resistant Staphylococcus aureus ST 30 expressing SCCmec type IVc gene by agar dilution method
# Staphylococcus aureus [2] = test: Antibacterial activity against group 5 PVL negative community-acquired methicillin-resistant Staphylococcus aureus ST 5 expressing SCCmec type II gene by agar dilution method
# Staphylococcus aureus [3] = test: Antibacterial activity against group 1-v4 PVL+ community-acquired methicillin-resistant Staphylococcus aureus ST 59 expressing SCCmec type VT gene by agar dilution method
# Staphylococcus aureus [4] = test: Antibacterial activity against group 4-v2 PVL negative community-acquired methicillin-resistant Staphylococcus aureus ST 59 expressing SCCmec type IVx gene by agar dilution method
# Staphylococcus aureus [5] = test: Antibacterial activity against group 6 PVL negative community-acquired methicillin-resistant Staphylococcus aureus ST 8 expressing SCCmec type IVx gene by agar dilution method
# Staphylococcus aureus [6] = test: Antibacterial activity against group 4-v3 PVL negative community-acquired methicillin-resistant Staphylococcus aureus ST 59 expressing SCCmec type IVc gene by agar dilution method
# Staphylococcus aureus [7] = test: Antibacterial activity against group 1-v2 PVL+ community-acquired methicillin-resistant Staphylococcus aureus ST 59 expressing SCCmec type X gene by agar dilution method
# Staphylococcus aureus [8] = test: Antibacterial activity against group 4 PVL negative community-acquired methicillin-resistant Staphylococcus aureus ST 59 expressing SCCmec type IVx gene by agar dilution method
# Staphylococcus aureus [9] = test: Antibacterial activity against group 1-v1 PVL+ community-acquired methicillin-resistant Staphylococcus aureus ST 59 expressing SCCmec type V gene by agar dilution method
# Staphylococcus aureus [10] = test: Antibacterial activity against group 1 PVL+ community-acquired methicillin-resistant Staphylococcus aureus ST 59 expressing SCCmec type VT gene by agar dilution method
# Staphylococcus aureus [11] = test: Antibacterial activity against group 1-v3 PVL+ community-acquired methicillin-resistant Staphylococcus aureus ST 59 expressing SCCmec type V gene by agar dilution method
# Staphylococcus aureus [12] = test: Antibacterial activity against group 3-v1 PVL negative community-acquired methicillin-resistant Staphylococcus aureus ST 900 expressing SCCmec type III gene by agar dilution method
# Staphylococcus aureus [13] = test: Antibacterial activity against group 3 PVL negative community-acquired methicillin-resistant Staphylococcus aureus ST 239 expressing SCCmec type III gene by agar dilution method
# Staphylococcus aureus [14] = test: Antibacterial activity against group 4-v1 PVL negative community-acquired methicillin-resistant Staphylococcus aureus ST 59 expressing SCCmec type X gene by agar dilution method
compound,measurement,setting,value
Cc1onc(-c2ccccc2)c1C(=O)N[C@@H]1C(=O)N2[C@@H]1SC(C)(C)[C@@H]2C(=O)O [OXACILLIN],MIC,Staphylococcus aureus [1],32 µg/mL
same,MIC,Staphylococcus aureus [2],≥ 128 µg/mL
same,MIC,Staphylococcus aureus [3],4 µg/mL
same,MIC,Staphylococcus aureus [4],64 µg/mL
same,MIC,Staphylococcus aureus [5],32 µg/mL
same,MIC,Staphylococcus aureus [6],32 µg/mL
same,MIC,Staphylococcus aureus [7],64 µg/mL
same,MIC,Staphylococcus aureus [8],≥ 128 µg/mL
same,MIC,Staphylococcus aureus [9],64 µg/mL
same,MIC,Staphylococcus aureus [10],32 µg/mL
same,MIC,Staphylococcus aureus [11],4 µg/mL
same,MIC,Staphylococcus aureus [12],≥ 128 µg/mL
same,MIC,Staphylococcus aureus [13],≥ 128 µg/mL
same,MIC,Staphylococcus aureus [14],32 µg/mL
